Source: ChEMBL document CHEMBL3885861, “Open TG-GATES”

Species: Rattus norvegicus
Assay: Open TG-GATES - Regimen: Single
Assay type: toxicity, organism-based, Sprague-Dawley
Set-up: regimen Single, gender Male, age 6 weeks
Conditions: in vivo, po, 1000 mg/kg, route gavage, dose level High; for APTT / Bas / Eos / Fbg / Hb / Ht / Lym / MCH / MCHC / MCV / Mono / Neu / PT / Plat / RBC / Ret / WBC: tissue Blood; for KIDNEY_L / KIDNEY_R / KIDNEY_TOTAL: tissue Kidney; for LIVER: tissue Liver; for A/G / ALP / ALT / AST / BUN / CRE / Ca / Cl / DBIL / GLC / IP / K / LDH / Na / PL / RALB / TBIL / TC / TG / TP / gamma-GTP: tissue Plasma

SMILES: CC[C@@H](CO)NCCN[C@@H](CC)CO [ETHAMBUTOL]
- TERMINAL_BW (3 h): 224.6 g
- APTT (3 h): 23.9 s
- Bas (3 h): 0%
- Eos (3 h): 0.8%
- Fbg (3 h): 301.6 mg/dL
- Hb (3 h): 13.7 g/dL
- Ht (3 h): 40.3%
- Lym (3 h): 81.2%
- MCH (3 h): 21.3 pg
- MCHC (3 h): 33.9%
- MCV (3 h): 62.7 fL
- Mono (3 h): 2.2%
- Neu (3 h): 15.4%
- PT (3 h): 15.7 s
- Plat (3 h): 126.2 x10_4/uL
- RBC (3 h): 643.4 x10_4/ul
- Ret (3 h): 7.5%
- WBC (3 h): 67.7 x10_2/uL
- KIDNEY_L (3 h): 1 g
- KIDNEY_R (3 h): 1 g
- KIDNEY_TOTAL (3 h): 2.1 g
- LIVER (3 h): 9.9 g
- A/G (3 h): 1.2
- ALP (3 h): 1529.4 IU/L
- ALT (3 h): 41.8 IU/L
- AST (3 h): 74.8 IU/L
- BUN (3 h): 10.4 mg/dL
- CRE (3 h): 0.1 mg/dL
- Ca (3 h): 10.1 mg/dL
- Cl (3 h): 106.8 meq/L
- DBIL (3 h): 0 mg/dL
- GLC (3 h): 173.8 mg/dL
- IP (3 h): 8.7 mg/dL
- K (3 h): 3.9 meq/L
- LDH (3 h): 175.6 IU/L
- Na (3 h): 141.6 meq/L
- PL (3 h): 139 mg/dL
- RALB (3 h): 3 g/dL
- TBIL (3 h): 0.018 mg/dL
- TC (3 h): 83.8 mg/dL
- TG (3 h): 35.6 mg/dL
- TP (3 h): 5.4 g/dL
- gamma-GTP (3 h): 1.8 IU/L
- TERMINAL_BW (6 h): 222.4 g
- APTT (6 h): 22.3 s
- Bas (6 h): 0%
- Eos (6 h): 1%
- Fbg (6 h): 308.6 mg/dL
- Hb (6 h): 13.7 g/dL
- Ht (6 h): 40.2%
- Lym (6 h): 77.4%
- MCH (6 h): 21.1 pg
- MCHC (6 h): 34.1%
- MCV (6 h): 61.9 fL
- Mono (6 h): 2.8%
- Neu (6 h): 18%
- PT (6 h): 15.9 s
- Plat (6 h): 123.5 x10_4/uL
- RBC (6 h): 650.6 x10_4/ul
- Ret (6 h): 7.1%
- WBC (6 h): 70.3 x10_2/uL
- KIDNEY_L (6 h): 1 g
- KIDNEY_R (6 h): 1 g
- KIDNEY_TOTAL (6 h): 2 g
- LIVER (6 h): 9.5 g
- A/G (6 h): 1.2
- ALP (6 h): 1436.4 IU/L
- ALT (6 h): 35.6 IU/L
- AST (6 h): 67.4 IU/L
- BUN (6 h): 9.8 mg/dL
- CRE (6 h): 0.1 mg/dL
- Ca (6 h): 10 mg/dL
- Cl (6 h): 108 meq/L
- DBIL (6 h): 0.002 mg/dL
- GLC (6 h): 186.4 mg/dL
- IP (6 h): 9.4 mg/dL
- K (6 h): 4.1 meq/L
- LDH (6 h): 176.4 IU/L
- Na (6 h): 141.4 meq/L
- PL (6 h): 134 mg/dL
- RALB (6 h): 3 g/dL
- TBIL (6 h): 0.03 mg/dL
- TC (6 h): 75.4 mg/dL
- TG (6 h): 43.2 mg/dL
- TP (6 h): 5.5 g/dL
- gamma-GTP (6 h): 1.4 IU/L
- TERMINAL_BW (9 h): 217 g
- APTT (9 h): 22.3 s
- Bas (9 h): 0%
- Eos (9 h): 0.2%
- Fbg (9 h): 312 mg/dL
- Hb (9 h): 13.9 g/dL
- Ht (9 h): 40.3%
- Lym (9 h): 79.2%
- MCH (9 h): 22 pg
- MCHC (9 h): 34.4%
- MCV (9 h): 64.1 fL
- Mono (9 h): 1.4%
- Neu (9 h): 17.8%
- PT (9 h): 16.3 s
- Plat (9 h): 116.9 x10_4/uL
- RBC (9 h): 630 x10_4/ul
- Ret (9 h): 7.6%
- WBC (9 h): 68.6 x10_2/uL
- KIDNEY_L (9 h): 1 g
- KIDNEY_R (9 h): 1 g
- KIDNEY_TOTAL (9 h): 1.9 g
- LIVER (9 h): 8.7 g
- A/G (9 h): 1.1
- ALP (9 h): 1464.4 IU/L
- ALT (9 h): 35.8 IU/L
- AST (9 h): 68.2 IU/L
- BUN (9 h): 11.4 mg/dL
- CRE (9 h): 0.1 mg/dL
- Ca (9 h): 9.9 mg/dL
- Cl (9 h): 108.2 meq/L
- DBIL (9 h): 0.002 mg/dL
- GLC (9 h): 177.8 mg/dL
- IP (9 h): 8.8 mg/dL
- K (9 h): 3.9 meq/L
- LDH (9 h): 143 IU/L
- Na (9 h): 140 meq/L
- PL (9 h): 121 mg/dL
- RALB (9 h): 3 g/dL
- TBIL (9 h): 0.022 mg/dL
- TC (9 h): 63.8 mg/dL
- TG (9 h): 44.6 mg/dL
- TP (9 h): 5.6 g/dL
- gamma-GTP (9 h): 1.6 IU/L
- TERMINAL_BW (24 h): 227.8 g
- APTT (24 h): 22.5 s
- Bas (24 h): 0%
- Eos (24 h): 1%
- Fbg (24 h): 306.4 mg/dL
- Hb (24 h): 13.4 g/dL
- Ht (24 h): 39.2%
- Lym (24 h): 76%
- MCH (24 h): 21.5 pg
- MCHC (24 h): 34.3%
- MCV (24 h): 62.9 fL
- Mono (24 h): 3%
- Neu (24 h): 18.6%
- PT (24 h): 16.7 s
- Plat (24 h): 118 x10_4/uL
- RBC (24 h): 623.4 x10_4/ul
- Ret (24 h): 6.9%
- WBC (24 h): 94.9 x10_2/uL
- KIDNEY_L (24 h): 1 g
- KIDNEY_R (24 h): 1.1 g
- KIDNEY_TOTAL (24 h): 2.1 g
- LIVER (24 h): 10.5 g
- A/G (24 h): 1.2
- ALP (24 h): 1508.4 IU/L
- ALT (24 h): 46.8 IU/L
- AST (24 h): 74 IU/L
- BUN (24 h): 13.4 mg/dL
- CRE (24 h): 0.1 mg/dL
- Ca (24 h): 10.5 mg/dL
- Cl (24 h): 105 meq/L
- DBIL (24 h): 0.002 mg/dL
- GLC (24 h): 183.8 mg/dL
- IP (24 h): 8.3 mg/dL
- K (24 h): 3.9 meq/L
- LDH (24 h): 158 IU/L
- Na (24 h): 139.4 meq/L
- PL (24 h): 135.4 mg/dL
- RALB (24 h): 3 g/dL
- TBIL (24 h): 0.022 mg/dL
- TC (24 h): 74.6 mg/dL
- TG (24 h): 53.2 mg/dL
- TP (24 h): 5.5 g/dL
- gamma-GTP (24 h): 2 IU/L
